The values that follow come from paper PMC9247344 (ACS infectious diseases, 2021).

Data set [1] concerns P. falciparum asexual blood stages (PfABS), strain W2. The class given is cell-based, Plasmodium falciparum. Particulars: for Selectivity Index: PfABS versus HepG2 cytotoxicity; for EC50: Plasmodium falciparum, W2, read-out: PfABS pEC50 (±S.D.) (converted).
Data set [2] relates to HepG2 human hepatocellular carcinoma cell line. Description: Cytotoxicity against HepG2. The class given is cell-based. Particulars: HepG2, 72 h; mean (±S.D.), n≥3; <5.00 = inactive at all concentrations tested.
Data set [3] in a line: Cytotoxicity against HepG2. The class given is cell-based, human. Particulars: human, HepG2 cells.

Each structure is given as a SMILES string.

The term CC50 denotes the concentration at which the toxic effect on the cells reaches its halfway point.

Consider `CC1CCC2C(C)C(CCCO)OC3OC4(C)CCC1C32OO4` (centres unmarked) [Compound 6a], for which the “Selectivity Index” value in data set [1] was > 891. Further, the “Cytotoxicity pCC50 (±S.D.)” value in data set [2] was < 5.00 (0.00).
With `C[C@H]1[C@@H](O)O[C@@H]2O[C@@]3(C)CC[C@H]4[C@H](C)CC[C@@H]1[C@@]24OO3` [DHA, dihydroartemisinin], in data set [1], the “Selectivity Index” value is > 9770 and the EC50 is 0.871 nM. Also, the CC50 at 72 h in data set [3] was > 8510 nM.
For the molecule `C[C@@H]1CC[C@H]2[C@@H](C)C(=O)O[C@@H]3O[C@@]4(C)CC[C@@H]1[C@]32OO4` [artemisinin], in data set [1], the “Selectivity Index” value was > 2950 and the EC50 was 3.39 nM. Besides, the CC50 at 72 h in data set [3] was > 10000 nM.
As for `C[C@H]1[C@H](OC(=O)CCC(=O)O)O[C@@H]2O[C@@]3(C)CC[C@H]4[C@H](C)CC[C@@H]1[C@@]24OO3` [artesunate], in data set [1], the “Selectivity Index” value amounted to 3160 and the EC50 is 1.12 nM. The molecule further gave a CC50 at 72 h in data set [3] of 3550 nM.
As for `COc1ccc(C[C@H](N)C(=O)N[C@H]2[C@@H](O)[C@H](n3cnc4c(N(C)C)ncnc43)O[C@@H]2CO)cc1` [puromycin], in data set [1], the “Selectivity Index” value is 8.71 and the EC50 is 46.8 nM. Moreover, in data set [3], it took 407 nM to reach half-maximal cytotoxicity (CC50 at 72 h).
